Measured values taken from ChEMBL document CHEMBL1201862, “PubChem BioAssay data set” (2004).
Activity calls are given as the source filed them. Rule as the data show it, for most assays here: actives have a measured EC50 and inactives only a lower limit.

Legend:
[1] = system: H9c2; experiment: cells; type: functional, cell-based; details: Rattus norvegicus, H9c2, Myocardium;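 also: confirmatory concentration-response retest of ultra-high-throughput screening hits for modulation of myocardial damage; cell death induced by hydrogen peroxide oxidative stress; compound pretreatment for 60 min then peroxide exposure for 2 h; potency is for protecting the cells against peroxide damage rather than for killing them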
[2] = C. albicans growth with fluconazole, confirmation, fluorescence, retest (AID 2467); type: functional, cell-based
[3] = NIH-3T3 fibroblast cytotoxicity, dose response, cytotoxicity control, cell-based, fluorescence, Alamar Blue, secondary assay (AID 2327); type: functional;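 also: NIH-3T3 mouse fibroblasts cultured with fluconazole at 8 µg/mL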
[4] = target: Luciferin 4-monooxygenase (Photinus pyralis, UniProt P08659); experiment: firefly luciferase enzyme inhibitors, dose response, biochemical, luminescence (AID 1891)
Sequence of Luciferin 4-monooxygenase (P08659 whole entry): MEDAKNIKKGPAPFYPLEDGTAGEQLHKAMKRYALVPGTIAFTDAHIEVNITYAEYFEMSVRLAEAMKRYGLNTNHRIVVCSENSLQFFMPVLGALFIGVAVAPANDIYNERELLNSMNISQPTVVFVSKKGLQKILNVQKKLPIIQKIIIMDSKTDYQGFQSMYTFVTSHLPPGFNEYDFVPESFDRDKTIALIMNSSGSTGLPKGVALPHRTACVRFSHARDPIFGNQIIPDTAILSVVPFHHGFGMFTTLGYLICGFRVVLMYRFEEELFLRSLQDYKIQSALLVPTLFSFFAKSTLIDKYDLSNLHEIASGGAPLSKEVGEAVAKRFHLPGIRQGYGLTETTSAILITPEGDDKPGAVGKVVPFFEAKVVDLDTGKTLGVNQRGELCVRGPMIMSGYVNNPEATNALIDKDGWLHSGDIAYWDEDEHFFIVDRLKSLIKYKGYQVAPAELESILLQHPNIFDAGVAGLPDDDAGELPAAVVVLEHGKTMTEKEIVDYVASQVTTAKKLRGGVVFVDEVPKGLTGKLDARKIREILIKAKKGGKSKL

[5] = Luminescence Cell-Based Dose Confirmation HTS to Identify Inhibitors of Platelet Dense Granule Release. [Related pubchem assays: 1663 (Primary HTS), 1678 (Summary of Project)]; type: functional
[6] = P. falciparum Dd2 growth inhibitors, dose response, SYBR Green, cherry-picked samples (AID 1159567); type: functional, cell-based
[7] = target: Paired box protein Pax-8 (Homo sapiens, UniProt Q06710); experiment: inhibitors of PAX8-driven TPO luciferase reporter, dose response, RMG-I cells, cherry-pick (AID 687027); type: functional, cell-based;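 also: luciferase reporter driven by Pax8 target thyroperoxidase promoter measured by SteadyGlo luminescence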
Sequence of Paired box protein Pax-8 (Q06710 whole entry): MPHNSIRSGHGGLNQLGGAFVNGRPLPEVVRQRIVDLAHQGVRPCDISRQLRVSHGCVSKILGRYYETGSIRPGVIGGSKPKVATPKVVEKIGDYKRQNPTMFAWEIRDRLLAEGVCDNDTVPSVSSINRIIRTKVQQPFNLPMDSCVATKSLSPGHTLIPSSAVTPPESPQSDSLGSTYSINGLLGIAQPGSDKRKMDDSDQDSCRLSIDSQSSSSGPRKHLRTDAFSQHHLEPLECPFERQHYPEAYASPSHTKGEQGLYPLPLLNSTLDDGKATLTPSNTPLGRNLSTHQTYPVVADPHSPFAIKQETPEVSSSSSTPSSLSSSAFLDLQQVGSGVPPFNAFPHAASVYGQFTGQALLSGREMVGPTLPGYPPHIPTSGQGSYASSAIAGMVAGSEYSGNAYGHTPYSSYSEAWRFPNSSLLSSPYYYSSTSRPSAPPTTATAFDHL

[8] = system: INS1; experiment: beta cell apoptosis inhibitors, cytokine rescue, dose response, luminescence, retest (AID 449756); type: functional, cell-based; details: Rattus norvegicus;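 also: cell death triggered by IL-1 beta plus TNF-alpha plus IFN-gamma mixture; protective hits raise ATP signal compared with cytokine alone wells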
[9] = cytotoxicity toward NIH3T3 fibroblasts, dose response, counter-screen, cell-based, ATP luminescence, mouse fibroblasts (AID 2010); type: functional;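 also: cells exposed to compound for about 90 hours before reading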
[10] = inhibitors of intracellular T. cruzi replication, confirmation, NIH3T3 host cells, beta-gal luminescence (AID 2044); type: functional, cell-based;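 also: intracellular parasites grown in NIH/3T3 mouse fibroblasts as host cells; luminescent beta-galactosidase reporter signal from transgenic T. cruzi replicating inside host cells; inhibitors lower the luminescence signal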
[11] = system: BJ; experiment: cytotoxicity toward BJ-TERT fibroblasts, dose response, cell-based, RAS-independent, luminescence (AID 1933); type: functional; details: Homo sapiens
[12] = system: BJ; experiment: cells; type: functional, cell-based; details: Homo sapiens
[13] = system: BJ; experiment: cytotoxicity toward BJ-TERT-LT-ST fibroblasts, dose response, cell-based, RAS-independent, luminescence (AID 1935); type: functional; details: Homo sapiens;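 also: BJ fibroblasts immortalized with TERT plus LT and ST oncogenes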
[14] = cytotoxicity toward DRD oncogenic fibroblasts, dose response, cell-based, non-viral oncogenic, luminescence (AID 1934); type: functional; details: Homo sapiens
[15] = Luminescence Cell-Based Dose Retest to Confirm Inhibitors of Cancer Stem Cells. [Related pubchem assays (depositor defined):AID2717, AID2721]; type: functional; details: Homo sapiens
[16] = target: Large T antigen (Simian virus 40, UniProt P03070); type: functional, Betapolyomavirus macacae;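 also: Confirmatory-stage PubChem screen for compounds that inhibit SV40 T antigen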
Sequence of Large T antigen (P03070 whole entry): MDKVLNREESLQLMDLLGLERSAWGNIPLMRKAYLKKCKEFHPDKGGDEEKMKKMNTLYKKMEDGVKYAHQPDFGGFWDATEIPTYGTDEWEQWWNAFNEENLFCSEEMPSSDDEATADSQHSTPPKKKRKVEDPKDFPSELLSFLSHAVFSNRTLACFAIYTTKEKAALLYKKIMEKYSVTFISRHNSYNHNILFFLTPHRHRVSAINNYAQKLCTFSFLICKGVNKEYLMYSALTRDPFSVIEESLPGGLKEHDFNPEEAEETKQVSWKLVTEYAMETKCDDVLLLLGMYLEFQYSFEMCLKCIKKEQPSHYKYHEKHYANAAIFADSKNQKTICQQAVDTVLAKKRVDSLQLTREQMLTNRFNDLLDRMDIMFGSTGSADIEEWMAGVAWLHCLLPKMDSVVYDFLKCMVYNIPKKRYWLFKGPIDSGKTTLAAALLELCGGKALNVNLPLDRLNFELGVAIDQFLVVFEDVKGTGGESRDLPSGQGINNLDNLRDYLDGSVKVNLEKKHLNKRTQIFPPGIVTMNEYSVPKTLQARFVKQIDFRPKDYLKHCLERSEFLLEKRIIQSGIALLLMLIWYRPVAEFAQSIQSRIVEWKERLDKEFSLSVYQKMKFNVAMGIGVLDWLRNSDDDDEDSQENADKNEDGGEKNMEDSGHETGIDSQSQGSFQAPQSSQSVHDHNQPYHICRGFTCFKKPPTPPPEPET

[17] = target: Heat shock protein HSP 90-alpha (Homo sapiens, UniProt P07900); type: functional, organism-based
[18] = target: T1, Protein skinhead-1 (Caenorhabditis elegans, UniProt P34707); type: functional
T1 sequence (P34707 whole entry): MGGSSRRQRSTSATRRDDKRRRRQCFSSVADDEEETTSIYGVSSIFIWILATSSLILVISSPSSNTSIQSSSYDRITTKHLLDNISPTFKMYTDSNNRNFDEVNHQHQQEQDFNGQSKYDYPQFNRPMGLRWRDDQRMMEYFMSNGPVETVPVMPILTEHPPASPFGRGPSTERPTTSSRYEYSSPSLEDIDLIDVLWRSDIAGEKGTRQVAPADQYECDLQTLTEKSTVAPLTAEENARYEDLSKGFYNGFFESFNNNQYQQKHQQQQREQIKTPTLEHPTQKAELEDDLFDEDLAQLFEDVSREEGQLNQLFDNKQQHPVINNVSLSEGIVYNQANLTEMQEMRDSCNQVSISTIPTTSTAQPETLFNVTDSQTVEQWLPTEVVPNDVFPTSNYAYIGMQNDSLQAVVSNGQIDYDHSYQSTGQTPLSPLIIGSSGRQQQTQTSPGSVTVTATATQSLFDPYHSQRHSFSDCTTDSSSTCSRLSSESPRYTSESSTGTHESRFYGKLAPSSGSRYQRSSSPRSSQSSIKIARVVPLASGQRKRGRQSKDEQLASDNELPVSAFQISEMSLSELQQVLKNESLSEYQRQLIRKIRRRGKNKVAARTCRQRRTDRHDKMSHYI

[19] = system: Streptococcus sp. 'group A'; experiment: growth inhibition of control SK(-) GAS strain, dose response, counter-screen for streptokinase expression inhibitor project, luminescence, kanamycin, BacTiterGlo, confirmation (AID 1900); type: functional, organism-based
[20] = inhibitors of SNCA 5'UTR-driven reporter translation, confirmation, H4 neuroglioma cells, luminescence (AID 1988); type: functional, cell-based
[21] = inhibitors of firefly luciferase expression or activity, dose response, H4 neuroglioma cells, luminescence (AID 1990); type: functional, cell-based
[22] = system: Streptococcus; experiment: Group A Streptococcus viability loss, dose response, counter-screen for streptokinase expression inhibitor project, luminescence, BacTiterGlo (AID 1915); type: functional, organism-based;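 also: potency for reduction of bacterial viability or growth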
[23] = target: T2, Streptokinase A (Streptococcus pyogenes serotype M1, UniProt P10520); experiment: S. pyogenes streptokinase expression inhibitors, potency, dose response, plasminogen activation absorbance, OD405 (AID 1914); type: functional, Streptococcus pyogenes M1 GAS;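 also: secreted streptokinase activity via plasminogen activation per viability signal from cell pellet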
T2 sequence (P10520 whole entry): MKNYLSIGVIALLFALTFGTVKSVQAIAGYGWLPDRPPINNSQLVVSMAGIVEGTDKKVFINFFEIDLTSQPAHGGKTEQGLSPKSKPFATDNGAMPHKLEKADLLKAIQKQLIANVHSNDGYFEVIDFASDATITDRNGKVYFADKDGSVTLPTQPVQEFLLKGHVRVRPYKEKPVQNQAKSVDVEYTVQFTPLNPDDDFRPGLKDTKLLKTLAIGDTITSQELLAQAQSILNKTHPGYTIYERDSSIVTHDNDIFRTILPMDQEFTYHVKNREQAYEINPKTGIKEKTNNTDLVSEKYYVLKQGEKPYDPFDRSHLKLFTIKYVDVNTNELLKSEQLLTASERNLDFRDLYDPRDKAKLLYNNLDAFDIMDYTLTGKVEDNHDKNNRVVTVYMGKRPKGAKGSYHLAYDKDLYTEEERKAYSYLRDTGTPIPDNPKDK

[24] = Luminescence Cell-Based Dose Response HTS to Identify Inhibitors of 5'UTR Stem-Loop Driven Prion Protein mRNA Translation in H4 Neuroglioblastoma Cells. [Related pubchem assays: 1827 (Project Summary), 1813 (Primary HTS)]; type: functional

CCOC(=O)C1=c2s/c(=C\c3ccncc3)c(=O)n2C(N)=C(C(=O)OC)C1c1ccncc1 (centres undefined)
IC50 [1]: > 79 µM (inactive)

O=C(CCS(=O)(=O)c1ccccc1)Nc1ncc([N+](=O)[O-])s1
EC50 [2]: 0.746 µM (active)
EC50 [3]: > 150 µM (inactive)

O=C(Cn1c(S)nc2ccccc21)c1ccccc1
EC50 [4]: > 112 µM (not active)
EC50 [5]: > 112 µM (not active)

Cc1cc([N+](=O)[O-])ccc1NC(=O)CSc1nncn1-c1cccnc1
EC50 [4]: > 112 µM (not active)
EC50 [5]: > 112 µM (not active)

Cc1ccc2c(c1)C1CN(C)CCC1N2Sc1ccccc1[N+](=O)[O-] (centres undefined)
EC50 [2]: > 38 µM (not active)
EC50 [3]: > 150 µM (inactive)

O=C(N1CCOCC1)N1CCN(S(=O)(=O)N2CCOCC2)CC1
EC50 [4]: > 112 µM (not active)
EC50 [5]: > 112 µM (not active)

C[C@@H](C(=O)N(C)C[C@@H]1OCc2ccccc2-c2c(n(C)c3ccccc23)C(=O)N([C@@H](C)CO)C[C@@H]1C)c1ccccc1
AC50 [6]: 6.3 µM (active)

Cc1ccc(S(=O)(=O)Nc2ccc3c(c2)C(=O)N([C@@H](C)CO)C[C@@H](C)[C@H](CN(C)Cc2ccc(Cl)c(Cl)c2)OCCCC[C@@H](C)O3)cc1
AC50 [7]: 7.92 µM (active)

COC(=O)c1ccc2c(O)nc(COC(=O)c3[nH]c(C)c(C(C)=O)c3C)nc2c1
IC50 [1]: 7.05 µM (active)

COC(=O)c1ccc(Cn2nnc3c(O)nc(C4CCCN(S(=O)(=O)c5ccccc5)C4)nc32)cc1 (centres undefined)
IC50 [1]: 18.3 µM (active)

COc1ccc(CCNC(=O)c2cc(S(=O)(=O)N3CCOCC3)cn2C)cc1OC
EC50 [4]: > 112 µM (not active)
EC50 [5]: > 112 µM (not active)

Cc1ccnc(NC(=O)c2ccc([N+](=O)[O-])s2)c1
AC50 [8]: 6.55 µM (active)
EC50 [9]: > 60 µM (not active)
EC50 [10]: 0.743 µM (active)

CC(OC(=O)Cc1nnc(O)c2ccccc12)C(=O)Nc1cccc([N+](=O)[O-])c1 (centres undefined)
IC50 [1]: > 79 µM (inactive)

COc1ccc(-c2cc(C(=O)N(C)Cc3nc(O)c4ccccc4n3)c3ccccc3n2)cc1OC
IC50 [1]: > 79 µM (inactive)

CCn1cc(C(=O)N[C@@H](CCSC)C(=O)NCCCn2ccnc2)c(=O)c2cc3c(cc21)OCO3
EC50 [4]: > 112 µM (not active)
EC50 [5]: > 112 µM (not active)

COC(=O)c1cnn2c(O)c(Cc3ccc(F)cc3Cl)c(C)nc12
EC50 [2]: 1.33 µM (active)
EC50 [3]: > 150 µM (inactive)

CC1=CS/C(=C(/C#N)C(=O)N2CCOCC2)N1c1ccccc1
EC50 [4]: > 112 µM (not active)
EC50 [5]: > 112 µM (not active)

Cc1ccc(/N=C/c2cc(Cl)cc(Cl)c2O)nc1
IC50 [1]: 13.5 µM (active)

O=C1Cc2ccccc2Sc2ccc(Cl)cc21
EC50 [4]: > 112 µM (not active)
EC50 [5]: > 112 µM (not active)

COc1ccc(-c2nnc3sc(-c4ccco4)nn23)cc1OC
IC50 [1]: > 79 µM (inactive)

CCN=C(S)NNC(=O)c1cc(-c2ccc(OC)cc2)nc2ccccc12
EC50 [4]: 0.107 µM (active)
EC50 [11]: 9.62 µM (active)
EC50 [12]: 14 µM (active)
EC50 [13]: > 150 µM (not active)
EC50 [5]: 1.38 µM (active)
EC50 [2]: > 38 µM (not active)
EC50 [14]: 11 µM (active)
EC50 [3]: > 160 µM (inactive)

Cc1ccc(C(=O)NC(=S)NNC(=O)c2ccccc2[N+](=O)[O-])cc1
EC50 [2]: > 38 µM (not active)
EC50 [3]: 18.8 µM (inconclusive)

O=C(CCSc1ccc(Cl)cc1)N1CCN(c2ccc(O)cc2)CC1
AC50 [15]: 2.51 µM (active)
IC50 [16]: 6.74 µM (active)
EC50 [9]: 6.9 µM (active)
EC50 [10]: 0.169 µM (active)

Cc1ccc(O)c(-c2cc(-c3cccc(F)c3)[nH]n2)c1
AC50 [17]: 25.4 µM (active)
IC50 [18]: > 100 µM (inactive)

C=C(C)C(=O)OC1(C(F)(F)F)Oc2cc(C)ccc2NC1=O (centres undefined)
AC50 [7]: 9.05 µM (active)

O=C(N/N=C/c1cc([N+](=O)[O-])ccc1O)c1cccc(NC(=O)c2cccc(Cl)c2)c1
AC50 [8]: 2.18 µM (active)
EC50 [19]: 5.18 µM (active)
EC50 [20]: 10.6 µM (active)
EC50 [21]: 12.7 µM (active)
EC50 [22]: 18.7 µM (active)
EC50 [23]: > 150 µM (not active)
EC50 [24]: 13.3 µM (active)

C/C(N)=C(/C#N)C(=O)COC(=O)c1cc(-c2ccc(C)cc2)nc2ccccc12
AC50 [15]: 17.4 µM (active)
AC50 [8]: > 260 µM (inactive)

CCOc1ccccc1CNS(=O)(=O)c1c[nH]cn1
EC50 [4]: > 112 µM (not active)
EC50 [5]: > 112 µM (not active)

COc1ccc(N(CC(=O)Nc2ccc3c(c2)OCO3)S(=O)(=O)c2ccccc2)c(OC)c1
IC50 [1]: > 79 µM (inactive)

COc1ccccc1NC(=O)c1c(Nc2ccccc2F)sc(C(=O)Nc2cccc(Cl)c2)c1N
AC50 [15]: 1.16 µM (active)

O=C(NCc1cccnc1)C(=O)NCC1OCCN1S(=O)(=O)c1ccccc1 (centres undefined)
EC50 [4]: > 112 µM (not active)
EC50 [5]: > 112 µM (not active)

CC1(C)C(=O)C(c2nc3ccccc3[nH]2)=C(N)N1c1ccccc1
EC50 [2]: 5.1 µM (active)
EC50 [3]: 58.9 µM (active)

COc1ccc(C#Cc2ccc3c(c2)[C@H]2[C@H](CCN2C(=O)c2ccccn2)[C@H](CO)N3)cc1
AC50 [6]: 5.61 µM (active)

CCc1nnc(NC(=O)CCC(=O)N2CCN(C3c4ccccc4-c4ccccc43)CC2)s1
IC50 [1]: 17.4 µM (active)

O=c1cc(-c2ccccc2)cc(-c2ccccc2)n1O
AC50 [17]: 1.13 µM (active)
